# Source: ChEMBL document CHEMBL4699602, “Stapled and Xenopus Glucagon-Like Peptide 1 (GLP-1)-Based Dual GLP-1/Gastrin Receptor Agonists with Improved Metabolic Benefits in Rodent Models of Obesity and Diabetes” (J Med Chem, 2020)
# Where a SMILES comes first, the peptide text is derived from it.
# Molecular target: Glucagon-like peptide 1 receptor (Homo sapiens, UniProt P43220)
# Assay: Agonist activity at human GLP-1R expressed in HEK293 cells assessed as stimulation of cAMP accumulation incubated for 20 mins
# Assay type: functional, cell-based
# Glucagon-like peptide 1 receptor, sequence (P43220 whole entry): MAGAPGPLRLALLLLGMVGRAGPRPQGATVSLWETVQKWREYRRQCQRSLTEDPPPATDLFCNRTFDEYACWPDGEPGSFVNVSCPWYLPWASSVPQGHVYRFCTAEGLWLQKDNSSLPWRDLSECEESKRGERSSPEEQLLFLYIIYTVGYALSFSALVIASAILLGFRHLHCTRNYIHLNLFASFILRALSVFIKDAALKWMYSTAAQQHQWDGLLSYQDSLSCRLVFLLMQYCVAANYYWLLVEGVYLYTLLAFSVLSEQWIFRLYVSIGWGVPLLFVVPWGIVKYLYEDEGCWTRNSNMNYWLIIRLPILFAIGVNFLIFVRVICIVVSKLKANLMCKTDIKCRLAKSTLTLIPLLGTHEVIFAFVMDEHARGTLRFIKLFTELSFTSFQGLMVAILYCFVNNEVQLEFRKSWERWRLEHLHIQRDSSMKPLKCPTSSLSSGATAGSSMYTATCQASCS
row,Compound,EC50
1,CC[C@H](C)[C@H](NC(=O)[C@H](CC(C)C)NC(=O)[C@H](Cc1c[nH]c2ccccc12)NC(=O)[C@H](CCC(=O)O)NC(=O)[C@H](CS)NC(=O)[C@H](Cc1ccccc1)NC(=O)[C@H](CCC(=O)O)NC(=O)[C@H](CCCCN)NC(=O)[C@H](C)NC(=O)[C@H](C)NC(=O)[C@H](CCC(=O)O)NC(=O)[C@H](CS)NC(=O)[C@H](CCC(=O)O)NC(=O)[C@H](CC(C)C)NC(=O)[C@H](Cc1ccc(O)cc1)NC(=O)[C@H](CCC(=O)O)NC(=O)[C@@H](NC(=O)[C@@H](NC(=O)[C@H](CC(=O)O)NC(=O)[C@H](CC(N)=O)NC(=O)[C@@H](NC(=O)[C@H](Cc1ccc(O)cc1)NC(=O)[C@@H](NC(=O)CNC(=O)[C@H](CCC(=O)O)NC(=O)C(C)(C)NC(=O)[C@@H](N)Cc1c[nH]cn1)[C@@H](C)O)[C@@H](C)O)C(C)C)[C@@H](C)O)C(=O)N[C@@H](CCCCN)C(=O)NCC(=O)N[C@@H](CCCCN)C(=O)N1CCC[C@H]1C(=O)N[C@@H](CO)C(=O)N[C@@H](CO)C(=O)NCC(=O)N[C@@H](C)C(=O)N1CCC[C@H]1C(=O)N1CCC[C@H]1C(=O)N1CCC[C@H]1C(=O)N[C@@H](CO)C(N)=O (HELM PEPTIDE1{H.[Aib].E.G.T.Y.T.N.D.V.T.E.Y.L.E.C.E.A.A.K.E.F.C.E.W.L.I.K.G.K.P.S.S.G.A.P.P.P.S.[am]}$$$$V2.0),0.28 nM
2,CC[C@H](C)[C@H](NC(=O)[C@H](CC(C)C)NC(=O)[C@H](Cc1c[nH]c2ccccc12)NC(=O)[C@H](CCC(=O)O)NC(=O)[C@H](CS)NC(=O)[C@H](Cc1ccccc1)NC(=O)[C@H](CCC(=O)O)NC(=O)[C@H](CCCCN)NC(=O)[C@H](C)NC(=O)[C@H](C)NC(=O)[C@H](CCC(=O)O)NC(=O)[C@H](CS)NC(=O)[C@H](CCC(=O)O)NC(=O)[C@H](CC(C)C)NC(=O)[C@H](Cc1ccc(O)cc1)NC(=O)[C@H](CCC(=O)O)NC(=O)[C@@H](NC(=O)[C@@H](NC(=O)[C@H](CC(=O)O)NC(=O)[C@H](CC(N)=O)NC(=O)[C@@H](NC(=O)[C@H](Cc1ccc(O)cc1)NC(=O)[C@@H](NC(=O)CNC(=O)[C@H](CCC(=O)O)NC(=O)C(C)(C)NC(=O)[C@@H](N)Cc1c[nH]cn1)[C@@H](C)O)[C@@H](C)O)C(C)C)[C@@H](C)O)C(=O)N[C@@H](CCCCN)C(=O)NCC(=O)N[C@@H](CCCCN)C(N)=O (HELM PEPTIDE1{H.[Aib].E.G.T.Y.T.N.D.V.T.E.Y.L.E.C.E.A.A.K.E.F.C.E.W.L.I.K.G.K.[am]}$$$$V2.0),0.73 nM
3,CC[C@H](C)[C@H](NC(=O)[C@H](CC(C)C)NC(=O)[C@H](Cc1c[nH]c2ccccc12)NC(=O)[C@H](CS)NC(=O)[C@@H](NC(=O)[C@H](Cc1ccccc1)NC(=O)[C@H](CCC(=O)O)NC(=O)[C@H](CCCCN)NC(=O)[C@H](C)NC(=O)[C@H](C)NC(=O)[C@H](CS)NC(=O)[C@H](CCC(=O)O)NC(=O)[C@H](CCC(=O)O)NC(=O)[C@H](CC(C)C)NC(=O)[C@H](Cc1ccc(O)cc1)NC(=O)[C@H](CCC(=O)O)NC(=O)[C@@H](NC(=O)[C@@H](NC(=O)[C@H](CC(=O)O)NC(=O)[C@H](CC(N)=O)NC(=O)[C@@H](NC(=O)[C@H](Cc1ccc(O)cc1)NC(=O)[C@@H](NC(=O)CNC(=O)[C@H](CCC(=O)O)NC(=O)C(C)(C)NC(=O)[C@@H](N)Cc1c[nH]cn1)[C@@H](C)O)[C@@H](C)O)C(C)C)[C@@H](C)O)[C@@H](C)CC)C(=O)N[C@@H](CCCCN)C(=O)NCC(=O)N[C@@H](CCCCN)C(=O)N1CCC[C@H]1C(=O)N[C@@H](CO)C(=O)N[C@@H](CO)C(=O)NCC(=O)N[C@@H](C)C(=O)N1CCC[C@H]1C(=O)N1CCC[C@H]1C(=O)N1CCC[C@H]1C(=O)N[C@@H](CO)C(N)=O (HELM PEPTIDE1{H.[Aib].E.G.T.Y.T.N.D.V.T.E.Y.L.E.E.C.A.A.K.E.F.I.C.W.L.I.K.G.K.P.S.S.G.A.P.P.P.S.[am]}$$$$V2.0),0.089 nM
4,CC[C@H](C)[C@H](NC(=O)[C@H](CC(C)C)NC(=O)[C@H](Cc1c[nH]c2ccccc12)NC(=O)[C@H](CS)NC(=O)[C@@H](NC(=O)[C@H](Cc1ccccc1)NC(=O)[C@H](CCC(=O)O)NC(=O)[C@H](CCCCN)NC(=O)[C@H](C)NC(=O)[C@H](C)NC(=O)[C@H](CS)NC(=O)[C@H](CCC(=O)O)NC(=O)[C@H](CCC(=O)O)NC(=O)[C@H](CC(C)C)NC(=O)[C@H](Cc1ccc(O)cc1)NC(=O)[C@H](CCC(=O)O)NC(=O)[C@@H](NC(=O)[C@@H](NC(=O)[C@H](CC(=O)O)NC(=O)[C@H](CC(N)=O)NC(=O)[C@@H](NC(=O)[C@H](Cc1ccc(O)cc1)NC(=O)[C@@H](NC(=O)CNC(=O)[C@H](CCC(=O)O)NC(=O)C(C)(C)NC(=O)[C@@H](N)Cc1c[nH]cn1)[C@@H](C)O)[C@@H](C)O)C(C)C)[C@@H](C)O)[C@@H](C)CC)C(=O)N[C@@H](CCCCN)C(=O)NCC(=O)N[C@@H](CCCCN)C(N)=O (HELM PEPTIDE1{H.[Aib].E.G.T.Y.T.N.D.V.T.E.Y.L.E.E.C.A.A.K.E.F.I.C.W.L.I.K.G.K.[am]}$$$$V2.0),0.16 nM
5,CC[C@H](C)[C@H](NC(=O)[C@H](Cc1ccccc1)NC(=O)[C@H](CCC(=O)O)NC(=O)[C@H](CS)NC(=O)[C@H](C)NC(=O)[C@H](C)NC(=O)[C@H](CCC(=O)O)NC(=O)[C@H](CCC(=O)O)NC(=O)[C@H](CCC(=O)O)NC(=O)[C@H](CC(C)C)NC(=O)[C@H](Cc1ccc(O)cc1)NC(=O)[C@H](CCC(=O)O)NC(=O)[C@@H](NC(=O)[C@@H](NC(=O)[C@H](CC(=O)O)NC(=O)[C@H](CC(N)=O)NC(=O)[C@@H](NC(=O)[C@H](Cc1ccc(O)cc1)NC(=O)[C@@H](NC(=O)CNC(=O)[C@H](CCC(=O)O)NC(=O)C(C)(C)NC(=O)[C@@H](N)Cc1c[nH]cn1)[C@@H](C)O)[C@@H](C)O)C(C)C)[C@@H](C)O)C(=O)N[C@@H](CCC(=O)O)C(=O)N[C@@H](Cc1c[nH]c2ccccc12)C(=O)N[C@@H](CC(C)C)C(=O)N[C@@H](CS)C(=O)N[C@@H](CCCCN)C(=O)NCC(=O)N[C@@H](CCCCN)C(=O)N1CCC[C@H]1C(=O)N[C@@H](CO)C(=O)N[C@@H](CO)C(=O)NCC(=O)N[C@@H](C)C(=O)N1CCC[C@H]1C(=O)N1CCC[C@H]1C(=O)N1CCC[C@H]1C(=O)N[C@@H](CO)C(N)=O (HELM PEPTIDE1{H.[Aib].E.G.T.Y.T.N.D.V.T.E.Y.L.E.E.E.A.A.C.E.F.I.E.W.L.C.K.G.K.P.S.S.G.A.P.P.P.S.[am]}$$$$V2.0),0.26 nM
6,CC[C@H](C)[C@H](NC(=O)[C@H](Cc1ccccc1)NC(=O)[C@H](CCC(=O)O)NC(=O)[C@H](CS)NC(=O)[C@H](C)NC(=O)[C@H](C)NC(=O)[C@H](CCC(=O)O)NC(=O)[C@H](CCC(=O)O)NC(=O)[C@H](CCC(=O)O)NC(=O)[C@H](CC(C)C)NC(=O)[C@H](Cc1ccc(O)cc1)NC(=O)[C@H](CCC(=O)O)NC(=O)[C@@H](NC(=O)[C@@H](NC(=O)[C@H](CC(=O)O)NC(=O)[C@H](CC(N)=O)NC(=O)[C@@H](NC(=O)[C@H](Cc1ccc(O)cc1)NC(=O)[C@@H](NC(=O)CNC(=O)[C@H](CCC(=O)O)NC(=O)C(C)(C)NC(=O)[C@@H](N)Cc1c[nH]cn1)[C@@H](C)O)[C@@H](C)O)C(C)C)[C@@H](C)O)C(=O)N[C@@H](CCC(=O)O)C(=O)N[C@@H](Cc1c[nH]c2ccccc12)C(=O)N[C@@H](CC(C)C)C(=O)N[C@@H](CS)C(=O)N[C@@H](CCCCN)C(=O)NCC(=O)N[C@@H](CCCCN)C(N)=O (HELM PEPTIDE1{H.[Aib].E.G.T.Y.T.N.D.V.T.E.Y.L.E.E.E.A.A.C.E.F.I.E.W.L.C.K.G.K.[am]}$$$$V2.0),0.76 nM
7,CC[C@H](C)[C@H](NC(=O)[C@H](CS)NC(=O)[C@H](CCC(=O)O)NC(=O)[C@H](CCCCN)NC(=O)[C@H](C)NC(=O)[C@H](C)NC(=O)[C@H](CCC(=O)O)NC(=O)[C@H](CCC(=O)O)NC(=O)[C@H](CCC(=O)O)NC(=O)[C@H](CC(C)C)NC(=O)[C@H](Cc1ccc(O)cc1)NC(=O)[C@H](CCC(=O)O)NC(=O)[C@@H](NC(=O)[C@@H](NC(=O)[C@H](CC(=O)O)NC(=O)[C@H](CC(N)=O)NC(=O)[C@@H](NC(=O)[C@H](Cc1ccc(O)cc1)NC(=O)[C@@H](NC(=O)CNC(=O)[C@H](CCC(=O)O)NC(=O)C(C)(C)NC(=O)[C@@H](N)Cc1c[nH]cn1)[C@@H](C)O)[C@@H](C)O)C(C)C)[C@@H](C)O)C(=O)N[C@@H](CCC(=O)O)C(=O)N[C@@H](Cc1c[nH]c2ccccc12)C(=O)N[C@@H](CC(C)C)C(=O)N[C@H](C(=O)N[C@@H](CCCCN)C(=O)N[C@@H](CS)C(=O)N[C@@H](CCCCN)C(=O)N1CCC[C@H]1C(=O)N[C@@H](CO)C(=O)N[C@@H](CO)C(=O)NCC(=O)N[C@@H](C)C(=O)N1CCC[C@H]1C(=O)N1CCC[C@H]1C(=O)N1CCC[C@H]1C(=O)N[C@@H](CO)C(N)=O)[C@@H](C)CC (HELM PEPTIDE1{H.[Aib].E.G.T.Y.T.N.D.V.T.E.Y.L.E.E.E.A.A.K.E.C.I.E.W.L.I.K.C.K.P.S.S.G.A.P.P.P.S.[am]}$$$$V2.0),0.16 nM
8,CC[C@H](C)[C@H](NC(=O)[C@H](CC(C)C)NC(=O)[C@H](Cc1c[nH]c2ccccc12)NC(=O)[C@H](CCC(=O)O)NC(=O)[C@@H](NC(=O)[C@H](CS)NC(=O)[C@H](CCC(=O)O)NC(=O)[C@H](CCCCN)NC(=O)[C@H](C)NC(=O)[C@H](C)NC(=O)[C@H](CCC(=O)O)NC(=O)[C@H](CCC(=O)O)NC(=O)[C@H](CCC(=O)O)NC(=O)[C@H](CC(C)C)NC(=O)[C@H](Cc1ccc(O)cc1)NC(=O)[C@H](CCC(=O)O)NC(=O)[C@@H](NC(=O)[C@@H](NC(=O)[C@H](CC(=O)O)NC(=O)[C@H](CC(N)=O)NC(=O)[C@@H](NC(=O)[C@H](Cc1ccc(O)cc1)NC(=O)[C@@H](NC(=O)CNC(=O)[C@H](CCC(=O)O)NC(=O)C(C)(C)NC(=O)[C@@H](N)Cc1c[nH]cn1)[C@@H](C)O)[C@@H](C)O)C(C)C)[C@@H](C)O)[C@@H](C)CC)C(=O)N[C@@H](CCCCN)C(=O)N[C@@H](CS)C(=O)N[C@@H](CCCCN)C(N)=O (HELM PEPTIDE1{H.[Aib].E.G.T.Y.T.N.D.V.T.E.Y.L.E.E.E.A.A.K.E.C.I.E.W.L.I.K.C.K.[am]}$$$$V2.0),0.45 nM
